Laboratory results: US9127015B2, “Tricyclopyrazole derivatives” (NERVIANO MEDICAL SCIENCES S.R.L., priority 2009, dated 2015)
Values joined by “and” are separate entries in the source; they are usually repeats but may differ in a detail not shown here. Equal values may be shown once.

What follows are compounds tested against ACK1 (Homo sapiens, UniProt Q07912) (assay: Kinase inhibition assay, IC50 (Table A)). Conditions: Enzyme ACK1.
Format: biochemical
Experimental: The inhibiting activity of putative kinase inhibitors and the potency of selected compounds is determined through a method of assay based on the use of the Kinase-Glo® Luminescent Kinase Assay (commercially available from Promega corporation and described in Koresawa, M. and Okabe, T. (2004) High-throughput screening with quantitation of ATP consumption: A universal non-radioisotope, homogeneous assay for protein kinase. Assay Drug Dev. Technol. 2, 153-60).
The inhibitory activity of putative kinase inhibitors and the potency of selected compounds were also determined using a trans-phosphorylation assay.
Specific peptide or protein substrates are trans-phosphorylated by their specific ser-thr or tyr kinase in the presence of ATP traced with ^33P-γ-ATP, and in the presence of their own optimal buffer and cofactors. At the end of the phosphorylation reaction, more than 98% unlabeled ATP and radioactive ATP is captured by an excess of the ion exchange dowex resin; the resin then settles down to the bottom of the reaction plate by gravity. Supernatant is subsequently withdrawn and transferred into a counting plate, then evaluated by β-counting.
Reaction conditions are target (enzyme) dependent and thus undergo individual adaptations. Also the buffer conditions may vary depending on the kinase of interest. The assay can be used with virtually any kinase and substrate combination and is suitable for all type of protein kinases, such as ABL, ACK1, AKT1, ALK, AUR1, AUR2, BRK, BUB1, CDC7/DBF4, CDK21CYCA, CHK1, CK2, EEF2K, EGFR1, EphA2, EphB4, ERK2, FAK, FGFR1, FLT3, GSK3beta, Haspin, IGFR1, IKK2, IR, JAK1, JAK2, JAK3, KIT, LCK, LYN, MAPKAPK2, MELK, MET, MNK2, MPSI, MST4, NEK6, NIM1, P38alpha, PAK-4, PDGFR, PDK1, PERK, PIM1, PIM2, PKAalpha, PKCbeta, PLK1, RET, ROS1, SULU1, Syk, TLK2, TRKA, TYK, VEGFR2, VEGFR3, ZAP70.

Sequence of ACK1 (Q07912 whole entry): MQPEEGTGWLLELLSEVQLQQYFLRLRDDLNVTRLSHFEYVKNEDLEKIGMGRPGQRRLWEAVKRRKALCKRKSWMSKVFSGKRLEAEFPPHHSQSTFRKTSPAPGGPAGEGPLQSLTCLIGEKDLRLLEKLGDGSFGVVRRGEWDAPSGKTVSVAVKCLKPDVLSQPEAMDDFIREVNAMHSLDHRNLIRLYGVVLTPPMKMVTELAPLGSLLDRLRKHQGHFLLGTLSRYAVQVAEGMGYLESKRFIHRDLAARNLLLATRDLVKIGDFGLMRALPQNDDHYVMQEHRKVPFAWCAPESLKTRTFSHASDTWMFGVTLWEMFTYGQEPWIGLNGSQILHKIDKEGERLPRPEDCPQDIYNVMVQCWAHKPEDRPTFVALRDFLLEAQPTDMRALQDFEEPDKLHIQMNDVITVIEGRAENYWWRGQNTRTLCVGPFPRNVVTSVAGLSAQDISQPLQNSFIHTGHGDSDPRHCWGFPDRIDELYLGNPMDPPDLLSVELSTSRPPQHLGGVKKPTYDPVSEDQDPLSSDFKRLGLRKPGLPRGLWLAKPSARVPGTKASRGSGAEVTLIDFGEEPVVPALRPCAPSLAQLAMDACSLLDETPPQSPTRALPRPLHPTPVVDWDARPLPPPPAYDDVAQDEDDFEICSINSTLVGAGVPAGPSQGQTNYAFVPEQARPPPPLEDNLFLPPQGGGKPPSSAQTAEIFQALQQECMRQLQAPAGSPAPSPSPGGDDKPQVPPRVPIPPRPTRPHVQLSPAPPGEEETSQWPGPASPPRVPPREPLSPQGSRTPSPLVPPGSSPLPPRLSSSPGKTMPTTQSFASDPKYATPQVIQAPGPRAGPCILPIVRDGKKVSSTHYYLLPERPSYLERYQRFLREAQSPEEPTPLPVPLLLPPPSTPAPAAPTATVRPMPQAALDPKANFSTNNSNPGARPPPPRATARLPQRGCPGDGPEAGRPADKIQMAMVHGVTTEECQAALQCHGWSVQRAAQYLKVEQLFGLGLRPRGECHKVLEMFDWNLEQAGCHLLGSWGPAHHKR

Row | SMILES | IC50
1 | O=C(Nc1n[nH]c2c1CCn1cc(C(=O)N3CCOCC3)cc1-2)c1ccccc1Cl [Example A5-M1-B7] | 1.43 µM
2 | CC(C)NC(=O)c1cc2n(c1)CCc1c(NC(=O)c3ccccc3Cl)n[nH]c1-2 [Example A5-M1-B10] | 3.25 µM
3 | CCN(CC)C(=O)c1cc2n(c1)CCc1c(NC(=O)c3ccccc3Cl)n[nH]c1-2 [Example A5-M1-B17] | 2.16 µM
4 | O=C(NCc1ccncc1)c1cc2n(c1)CCc1c(NC(=O)c3ccccc3Cl)n[nH]c1-2 [Example A5-M1-B25] | 1.92 µM
5 | O=C(NCc1ccccn1)c1cc2n(c1)CCc1c(NC(=O)c3ccccc3Cl)n[nH]c1-2 [Example A5-M1-B26] | 3.04 µM
6 | CCC(C)NC(=O)c1cc2n(c1)CCc1c(NC(=O)c3ccccc3Cl)n[nH]c1-2 (centres unmarked) [Example A5-M1-B27] | 2.4 µM
7 | O=C(NC1CCCC1)c1cc2n(c1)CCc1c(NC(=O)c3ccccc3Cl)n[nH]c1-2 [Example A5-M1-B28] | 4.33 µM
8 | O=C(NC1CC1)c1cc2n(c1)CCc1c(NC(=O)c3ccccc3Cl)n[nH]c1-2 [Example A5-M1-B30] | 4.71 µM
9 | O=C(NCCN1CCCCC1)c1cc2n(c1)CCc1c(NC(=O)c3ccccc3Cl)n[nH]c1-2 [Example A5-M1-B31] | 3.16 µM
10 | CCCN1CCN(C(=O)c2cc3n(c2)CCc2c(NC(=O)c4ccccc4Cl)n[nH]c2-3)CC1 [Example A5-M1-B32] | 1.38 µM
11 | C=CCNC(=O)c1cc2n(c1)CCc1c(NC(=O)c3ccccc3Cl)n[nH]c1-2 [Example A5-M1-B36] | 4.12 µM
12 | O=C(Nc1n[nH]c2c1CCn1cc(C(=O)N3CCSCC3)cc1-2)c1ccccc1Cl [Example A5-M1-B38] | 2.16 µM
13 | CC(C)CNC(=O)c1cc2n(c1)CCc1c(NC(=O)c3ccccc3Cl)n[nH]c1-2 [Example A5-M1-B39] | 1.94 µM
14 | CC(C)N1CCN(C(=O)c2cc3n(c2)CCc2c(NC(=O)c4ccccc4Cl)n[nH]c2-3)CC1 [Example A5-M1-B40] | 1.73 µM
15 | O=C(NCc1ccccn1)c1cc2n(c1)CCCc1c(NC(=O)c3ccccc3Cl)n[nH]c1-2 [Example A5-M2-B26] | 4.84 µM
16 | O=C(NCCN1CCCCC1)c1cc2n(c1)CCCc1c(NC(=O)c3ccccc3Cl)n[nH]c1-2 [Example A5-M2-B31] | 3.51 µM
17 | COCCNC(=O)c1cc2n(c1)CCCc1c(NC(=O)c3ccccc3Cl)n[nH]c1-2 [Example A5-M2-B33] | 2.47 µM
18 | C=CCNC(=O)c1cc2n(c1)CCCc1c(NC(=O)c3ccccc3Cl)n[nH]c1-2 [Example A5-M2-B36] | 0.74 µM
19 | CC(C)CNC(=O)c1cc2n(c1)CCCc1c(NC(=O)c3ccccc3Cl)n[nH]c1-2 [Example A5-M2-B39] | 0.55 µM
20 | O=C(NCC1CC1)c1cc2n(c1)CCCc1c(NC(=O)c3ccccc3Cl)n[nH]c1-2 [Example A5-M2-B41] | 0.44 µM and 0.24 µM
21 | COc1ccccc1C(=O)Nc1n[nH]c2c1CCn1cc(C(=O)N3CCCC3)cc1-2 [Example A6-M1-B8] | 1.89 µM
22 | CCCN1CCN(C(=O)c2cc3n(c2)CCc2c(NC(=O)c4ccccc4F)n[nH]c2-3)CC1 [Example A20-M1-B32] | 3.06 µM
23 | CCN(CC)C(=O)c1cc2n(c1)CCc1c(NC(=O)c3ccccc3C)n[nH]c1-2 [Example A21-M1-B17] | 1.41 µM
24 | Cc1ccccc1C(=O)Nc1n[nH]c2c1CCn1cc(C(=O)NCC3CC3)cc1-2 [Example A21-M1-B41] | 2.45 µM
25 | Cc1ccccc1C(=O)Nc1n[nH]c2c1CCCn1cc(C(=O)NCC3CC3)cc1-2 [Example A21-M2-B41] | 1.56 µM
26 | CC(C)CNC(=O)c1cc2n(c1)CCCc1c(NC(=O)C(C)C)n[nH]c1-2 [Example A27-M2-B39] | 3.17 µM
27 | Cc1ccc(C(=O)Nc2n[nH]c3c2CCn2cc(C(=O)N4CCOCC4)cc2-3)c(C)c1 [Example A35-M1-B7] | 5.91 µM
28 | Cc1ccc(C(=O)Nc2n[nH]c3c2CCn2cc(C(=O)NC(C)C)cc2-3)c(C)c1 [Example A35-M1-B10] | 3.13 µM
29 | Cc1ccc(C(=O)Nc2n[nH]c3c2CCn2cc(C(=O)NC4CC4)cc2-3)c(C)c1 [Example A35-M1-B30] | 6.56 µM
